Experimental findings from paper PMC7807878, “Development of an engineered peptide antagonist against periostin to overcome doxorubicin resistance in breast cancer” (BMC Cancer, 2021) are described below.

The test system of assay [1] is non-denaturing cell lysate of PN-transfected BCA cells (MDA-MB-231 and MCF-7). As to the kind of experiment: Dot blot, FITC-peptide binding to non-denaturing cell lysate of PN-transfected BCA cells. The following applies: 12.5 μg cell lysate, 4 °C overnight, fluorescence, vs mock. The source says: (§1) After selecting the best binding sequence of 12-amino acids peptides, 2 types of peptide would be synthesized, plain peptide and peptide conjugated with fluorescein isothiocyanate (FITC). For the synthesis of the latter, a spacer region ([…]) would be added at the C-terminal end of the peptide and FITC was conjugated with the side chain of lysine. Finally, C-terminal amidation would be performed. The synthesis of plain and FITC-labelled anti PN peptides was ordered from Syn Peptide company (Shanghai, China). FITC-labelled anti-PN peptide tested binding affinity to non-denaturing cell lysate of transfected BCA cells and their mock transfected cells and rPN by dot blot analysis. Briefly, 12.5 μg of cell lysate or 500 ng of rPN in 1 μl was applied onto nitrocellulose membrane. The membrane was blocked with 5% BSA followed by peptide incubation at 4 °C overnight and the fluorescent signal was detected the next day using the G:BOX gel documentation system. The checking of anti-PN peptide binding to intact PN-transfected BCA cells was also performed with similar process as immunocytochemistry plus a step of cell membrane permeabilizing after fixation by incubated with 1% Triton X for 1 min at RT. […] The observation was viewed under confocal microscope using laser diode 488 nm.

In assay [2] the target is T1, BSA (Bos taurus, UniProt P02769). As to the kind of experiment: Dot blot, FITC-peptide binding to BSA. The note with it: BSA negative control, fluorescence.
Excerpt: as §1

Assay [3] has as its system rPN. As to the kind of experiment: Dot blot, FITC-peptide binding to rPN. The following applies: 500 ng rPN, 4 °C overnight, fluorescence.
Excerpt: as §1

Assay [4] concerns PN-transfected BCA cells. As to the kind of experiment: Immunocytochemistry, FITC-peptide binding to permeabilized PN-transfected BCA cells. The note with it: 2 μM FITC-peptide, 1 h at RT, 1% Triton X permeabilized, confocal microscope; PN-transfected vs mock. The format is cell-based.
Excerpt: as §1

For assay [5], the system named is MCF-7 cells. As to the kind of experiment: Drug sensitivity (MTS), MCF-7. The following applies: Homo sapiens, MCF7, 48 h, MTS. Type of assay: cell-based. The protocol:
(§2) Determination the IC50 of BCA cells in response to chemotherapeutic drugs was analyzed by MTS assay. The experiment started from 5 × 10^3 of BCA cells in 100 μl medium that were seeded in 96-well plates for 24 h, then media was changed with different concentrations of new chemotherapeutic drugs [doxorubicin (S1208), paclitaxel (S1150), cisplatin (S1166), 5-fluorouracil (5-FU) (S1209) and gemcitabine (S1714) that were purchased from Selleck Chemicals, Houston, TX, USA] with or without rPN and anti-PN peptide for a further 48 h. After that, cell viability was determined by the MTS assay. Combination index (CI) was calculated by IC50 of combination of drug and PN or anti-PN peptide divided by IC50 of chemotherapeutic drug alone.
(§3) ANOVA test or Student’s t-test were applied for statistical analysis of the experiments. GraphPad Prism® version 7.04 software (GraphPad Software, San Diego, CA, USA) was used in calculation of IC50 values of chemotherapeutic drugs and PASW Statistics software version 18 (SPSS, IBM, Armonk, NY, USA) was used for other analysis. Dose-responses were compared by Holm-Sidak’s multiple comparison test. Mann-Whitney ranked-sum test was used for comparisons between normal and patient serum PN. Chi-square or Fisher’s exact test were used to determine the correlation between PN expression and clinical data in BCA patients. Kaplan-Meier Log-rank test using Kaplan-Meier Plotter online tool (https://kmplot.com/) was performed to determine the correlation between PN expression and survival time of BCA patients by online database. P-values of < 0.05 were used as statistical significance.

In assay [6] the test system is MDA-MB-231 cells. As to the kind of experiment: Drug sensitivity (MTS), MDA-MB-231. Type of assay: cell-based. The note with it: Homo sapiens, MDA-MB-231, 48 h, MTS. On the procedure: as §2, §3
Assay [7] deals with T1, BSA. As to the kind of experiment: Isothermal titration calorimetry, binding to BSA (negative control). The following applies: ITC. The text has this:
The physical properties of this peptide would be determined by an online tool (https://www.thermofisher.com) (Thermo Fisher Scientific). Structure of this peptide and the binding properties to PN would be predicted by PEP-FOLD3 [34] and pepATTRACT [35] tools from RPBS Web Portal (https://bioserv.rpbs.univ-paris-diderot.fr) using PN 3D-structure from RCSB PDB database (https://www.rcsb.org/structure/5YJG). […] The procedure followed the instructions for the machine. The results would be determined by the measurement of the exothermic energy after intermittent injection into the cell compartment and reported as the binding affinity constant (KD).

Where no end group is shown, it is not given here. The star is where a group is joined. FITC = O=C1OC2(c3ccc(O)cc3Oc3cc(O)ccc32)c2ccc(NC(=S)*)cc21

T1 sequence (P02769 25-607): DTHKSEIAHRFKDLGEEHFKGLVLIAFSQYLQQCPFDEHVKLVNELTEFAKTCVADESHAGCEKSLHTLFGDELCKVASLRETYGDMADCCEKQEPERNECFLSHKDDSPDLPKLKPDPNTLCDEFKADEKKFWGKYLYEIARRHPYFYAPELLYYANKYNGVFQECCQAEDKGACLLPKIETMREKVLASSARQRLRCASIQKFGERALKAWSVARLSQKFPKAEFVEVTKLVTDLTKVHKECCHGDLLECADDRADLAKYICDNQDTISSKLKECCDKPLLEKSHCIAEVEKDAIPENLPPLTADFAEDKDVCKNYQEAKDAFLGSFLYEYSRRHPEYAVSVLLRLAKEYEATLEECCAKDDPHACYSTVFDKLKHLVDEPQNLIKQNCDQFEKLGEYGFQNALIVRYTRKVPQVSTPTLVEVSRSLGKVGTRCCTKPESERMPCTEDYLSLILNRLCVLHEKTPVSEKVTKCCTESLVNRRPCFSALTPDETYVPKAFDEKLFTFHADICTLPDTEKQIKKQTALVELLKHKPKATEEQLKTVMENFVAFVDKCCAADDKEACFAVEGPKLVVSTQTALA

Turning to “FITC-labelled anti-PN peptide (TFATHGKHWAAPGGGSCK(FITC)-NH2; N-terminus assumed; SMILES C[C@H](NC(=O)[C@H](Cc1c[nH]c2ccccc12)NC(=O)[C@H](Cc1c[nH]cn1)NC(=O)[C@H](CCCCN)NC(=O)CNC(=O)[C@H](Cc1c[nH]cn1)NC(=O)[C@@H](NC(=O)[C@H](C)NC(=O)[C@H](Cc1ccccc1)NC(=O)[C@@H](N)[C@@H](C)O)[C@@H](C)O)C(=O)N[C@@H](C)C(=O)N1CCC[C@H]1C(=O)NCC(=O)NCC(=O)NCC(=O)N[C@@H](CO)C(=O)N[C@@H](CS)C(=O)N[C@@H](CCCCNC(=S)Nc1ccc2c(c1)C(=O)OC21c2ccc(O)cc2Oc2cc(O)ccc21)C(N)=O)”, in assay [1], the “Peptide binding to PN-transfected cell lysate” value is recorded as “higher in both PN-transfected BCA cells compared with their mock control cells”. Further, in assay [2], the “Peptide binding to BSA” value was “no signal in BSA”. The “Peptide binding to rPN” value in assay [3] is recorded as “markedly increased in rPN”. In addition, in assay [4], the “Peptide binding in permeabilized cells” value is listed as “confirmed by immunocytochemistry staining in permeabilized cells”.

For `COc1cccc2c1C(=O)c1c(O)c3c(c(O)c1C2=O)C[C@@](O)(C(=O)CO)C[C@@H]3O[C@H]1C[C@H](N)[C@H](O)[C@H](C)O1` [doxorubicin], the half-maximal inhibitory concentration (IC50) came out at 970 nM in assay [5] (doxorubicin with anti-PN peptide, PN-transfected MCF-7, 48 h, P-value = 0.007); 1440 nM in assay [5] (doxorubicin, PN-transfected MCF-7, 48 h, P-value = 0.013 vs mock); 1040 nM in assay [5] (doxorubicin, anti-PN peptide treated MCF-7 without rPN, 48 h, P-value = 0.558); 1070 nM in assay [5] (doxorubicin, mock transfected MCF-7, 48 h); 1270 nM in assay [5] (doxorubicin, rPN + anti-PN peptide treated MCF-7, 48 h, P-value = 0.038); 1460 nM in assay [5] (doxorubicin, rPN-treated MCF-7, 48 h, P-value = 0.007). Also, the IC50 came out at 1050 nM in assay [5] (doxorubicin, untreated control MCF-7 (rPN treatment experiment), 48 h); 797 nM in assay [6] (doxorubicin with anti-PN peptide, PN-transfected MDA-MB-231, 48 h, P-value = 0.002); 706 nM in assay [6] (doxorubicin with anti-PN peptide, mock transfected MDA-MB-231, 48 h, P-value = 0.932); 1090 nM in assay [6] (doxorubicin, PN-transfected MDA-MB-231, 48 h, P-value < 0.001 vs mock); 896 nM in assay [6] (doxorubicin, anti-PN peptide treated MDA-MB-231 without rPN, 48 h, P-value = 0.870); 710 nM in assay [6] (doxorubicin, mock transfected MDA-MB-231, 48 h). Also, the IC50 was determined as 1300 nM in assay [6] (doxorubicin, rPN + anti-PN peptide treated MDA-MB-231, 48 h, P-value = 0.038); 1990 nM in assay [6] (doxorubicin, rPN-treated MDA-MB-231, 48 h, P-value = 0.024); 845 nM in assay [6] (doxorubicin, untreated control MDA-MB-231 (rPN treatment experiment), 48 h).

As for TFATHGKHWAAP [anti-PN peptide], in assay [7], the “Binding affinity to BSA” value is reported as “could not be determined in BSA”.
